How the values were obtained:
[1] = molecular target: T1, hTGR5 (Homo sapiens, UniProt Q8TDU6); experiment: TGR5/CRE Luciferase Assay (hTGR5); type: cell-based; conditions: for EC50: HEK 293 cells co-transfected with pCMV tag4b-TGR5h and pCRE TA-Luciferase, overnight incubation; for hTGR5 % trans: percentage of the 10 μM LCA value, HEK 293 cells transfected with hTGR5
T1 construct: expressed in transfected cells; host or cells: HEK293 cells, transiently co-transfected with the pCRE TA-Luciferase reporter
T1 sequence (Q8TDU6 1-330): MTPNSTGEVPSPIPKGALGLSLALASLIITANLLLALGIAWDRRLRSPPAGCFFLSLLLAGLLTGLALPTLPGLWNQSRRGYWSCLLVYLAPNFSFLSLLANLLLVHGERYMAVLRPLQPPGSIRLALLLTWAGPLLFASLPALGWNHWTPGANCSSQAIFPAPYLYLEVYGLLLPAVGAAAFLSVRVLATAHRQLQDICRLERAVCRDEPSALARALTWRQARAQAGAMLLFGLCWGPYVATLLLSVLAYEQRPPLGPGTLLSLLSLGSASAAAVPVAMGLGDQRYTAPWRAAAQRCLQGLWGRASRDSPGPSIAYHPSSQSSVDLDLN
Summary of the method: (§1)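 Transiently co-transfected HEK293 cells expressing human or mouse TGR5 plus a CRE-luciferase reporter were incubated overnight with rising compound concentrations in duplicate. Luminescence reported cAMP-driven expression; 10 μM lithocholic acid served as positive reference. Curves fitted to a 4-parameter logistic.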

[2] = molecular target: T2, mTGR5 (Mus musculus, UniProt Q80SS6); experiment: TGR5/CRE Luciferase Assay (mTGR5); type: cell-based; conditions: for EC50: HEK 293 cells co-transfected with pCMV AC6-TGR5m and pCRE TA-Luciferase, overnight incubation; for mTGR5 % trans: percentage of the 10 μM LCA value, HEK 293 cells transfected with mTGR5
T2 construct: expressed in transfected cells; host or cells: HEK293 cells, transiently co-transfected with the pCRE TA-Luciferase reporter
T2 sequence (Q80SS6 1-329): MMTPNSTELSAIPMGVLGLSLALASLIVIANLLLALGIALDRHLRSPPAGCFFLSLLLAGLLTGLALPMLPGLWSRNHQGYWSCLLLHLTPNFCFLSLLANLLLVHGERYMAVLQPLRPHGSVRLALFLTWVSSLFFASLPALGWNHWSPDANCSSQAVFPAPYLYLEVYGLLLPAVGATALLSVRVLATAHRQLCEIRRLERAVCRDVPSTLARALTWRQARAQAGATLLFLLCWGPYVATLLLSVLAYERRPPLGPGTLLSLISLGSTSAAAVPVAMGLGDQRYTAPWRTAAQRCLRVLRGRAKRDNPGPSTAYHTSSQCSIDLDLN
Summary of the method: as §1

SMILES | EC50 [1] | hTGR5 % trans [1] | EC50 [2] | mTGR5 % trans [2]
COCCN1C(=O)CC(c2ccc(Cl)cc2)C(C(=O)OCc2cccc(Cl)c2)=C1C (stereo not drawn) [Example 88, (3-chlorophenyl)methyl 4-(4-chlorophenyl)-1-(2-methoxyethyl)-6-methyl-2-oxo-3,4-dihydropyridine-5-carboxylate] | 200 nM | 75% | 400 nM | 91%
COCCN1C(=O)CC(c2ccc(Cl)cc2)C(C(=O)OCc2ccc(Cl)cc2)=C1C (stereo not drawn) [Example 89, (4-chlorophenyl)methyl 4-(4-chlorophenyl)-1-(2-methoxyethyl)-6-methyl-2-oxo-3,4-dihydropyridine-5-carboxylate] | 400 nM | 65% | 300 nM | 84%
COCCN1C(=O)CC(c2ccc(Cl)cc2)C(C(=O)OCc2ccccc2C(F)(F)F)=C1C (stereo not drawn) [Example 90, [2-(trifluoromethyl)phenyl]methyl 4-(4-chlorophenyl)-1-(2-methoxyethyl)-6-methyl-2-oxo-3,4-dihydropyridine-5-carboxylate] | 1100 nM | 57% | 1300 nM | 34%
COCCN1C(=O)CC(c2ccc(Cl)cc2)C(C(=O)OCc2cccc(C(F)(F)F)c2)=C1C (stereo not drawn) [Example 91, [3-(trifluoromethyl)phenyl]methyl 4-(4-chlorophenyl)-1-(2-methoxyethyl)-6-methyl-2-oxo-3,4-dihydropyridine-5-carboxylate] | 500 nM |  | 700 nM | 
COCCN1C(=O)CC(c2ccc(Cl)cc2)C(C(=O)OCc2ccccc2C#N)=C1C (stereo not drawn) [Example 93, (2-cyanophenyl)methyl 4-(4-chlorophenyl)-1-(2-methoxyethyl)-6-methyl-2-oxo-3,4-dihydropyridine-5-carboxylate] | 600 nM | 58% | 800 nM | 53%
COCCN1C(=O)CC(c2ccc(Cl)cc2)C(C(=O)OCc2cccc(C#N)c2)=C1C (stereo not drawn) [Example 94, (3-cyanophenyl)methyl 4-(4-chlorophenyl)-1-(2-methoxyethyl)-6-methyl-2-oxo-3,4-dihydropyridine-5-carboxylate] | 600 nM | 61% | 400 nM | 65%
COCCN1C(=O)CC(c2ccc(Cl)cc2)C(C(=O)OCc2ccc(C#N)cc2)=C1C (stereo not drawn) [Example 95, (4-cyanophenyl)methyl 4-(4-chlorophenyl)-1-(2-methoxyethyl)-6-methyl-2-oxo-3,4-dihydropyridine-5-carboxylate] | 200 nM | 78% | 300 nM | 76%
COCCN1C(=O)CC(c2ccc(Cl)cc2)C(C(=O)OCc2cccc(C(=O)OC)c2)=C1C (stereo not drawn) [Example 96, (3-methoxycarbonylphenyl)methyl 4-(4-chlorophenyl)-1-(2-methoxyethyl)-6-methyl-2-oxo-3,4-dihydropyridine-5-carboxylate] | 1100 nM | 63% | 600 nM | 83%
COCCN1C(=O)CC(c2ccc(Cl)cc2)C(C(=O)OCc2ccc(C(=O)OC)cc2)=C1C (stereo not drawn) [Example 97, (4-methoxycarbonylphenyl)methyl 4-(4-chlorophenyl)-1-(2-methoxyethyl)-6-methyl-2-oxo-3,4-dihydropyridine-5-carboxylate] | 400 nM | 76% | 400 nM | 76%
COCCN1C(=O)CC(c2ccc(Cl)cc2)C(C(=O)OCc2ccccc2C)=C1C (stereo not drawn) [Example 98, o-tolylmethyl 4-(4-chlorophenyl)-1-(2-methoxyethyl)-6-methyl-2-oxo-3,4-dihydropyridine-5-carboxylate] | 300 nM |  | 500 nM | 
COCCN1C(=O)CC(c2ccc(Cl)cc2)C(C(=O)OCc2ccc(C)cc2)=C1C (stereo not drawn) [Example 100, p-tolylmethyl 4-(4-chlorophenyl)-1-(2-methoxyethyl)-6-methyl-2-oxo-3,4-dihydropyridine-5-carboxylate] | 600 nM | 72% | 400 nM | 89%
COCCN1C(=O)CC(c2ccc(Cl)cc2)C(C(=O)OCc2c(C)cc(C)cc2C)=C1C (stereo not drawn) [Example 101, (2,4,6-trimethylphenyl)methyl 4-(4-chlorophenyl)-1-(2-methoxyethyl)-6-methyl-2-oxo-3,4-dihydropyridine-5-carboxylate] | 200 nM | 75% | 200 nM | 84%
COCCN1C(=O)CC(c2ccc(Cl)cc2)C(C(=O)OCc2cccc(OC)c2)=C1C (stereo not drawn) [Example 103, (3-methoxyphenyl)methyl 4-(4-chlorophenyl)-1-(2-methoxyethyl)-6-methyl-2-oxo-3,4-dihydropyridine-5-carboxylate] | 500 nM | 85% | 400 nM | 95%
COCCN1C(=O)CC(c2ccc(Cl)cc2)C(C(=O)OCc2ccc(OC)cc2)=C1C (stereo not drawn) [Example 104, (4-methoxyphenyl)methyl 4-(4-chlorophenyl)-1-(2-methoxyethyl)-6-methyl-2-oxo-3,4-dihydropyridine-5-carboxylate] | 200 nM | 71% | 200 nM | 85%
COCCN1C(=O)CC(c2ccc(Cl)cc2)C(C(=O)OCc2ccc3ccccc3c2)=C1C (stereo not drawn) [Example 106, 2-naphthylmethyl 4-(4-chlorophenyl)-1-(2-methoxyethyl)-6-methyl-2-oxo-3,4-dihydropyridine-5-carboxylate] | 400 nM |  | 200 nM | 
COCCN1C(=O)CC(c2ccc(Cl)cc2)C(C(=O)OCc2ccncc2)=C1C (stereo not drawn) [Example 107, 4-pyridylmethyl 4-(4-chlorophenyl)-1-(2-methoxyethyl)-6-methyl-2-oxo-3,4-dihydropyridine-5-carboxylate] | 1200 nM | 71% | 600 nM | 83%
COCCN1C(=O)CC(c2ccc(Cl)cc2)C(C(=O)OCc2ccc(-c3ccccc3)cc2)=C1C (stereo not drawn) [Example 108, (4-phenylphenyl)methyl 4-(4-chlorophenyl)-1-(2-methoxyethyl)-6-methyl-2-oxo-3,4-dihydropyridine-5-carboxylate] | 500 nM |  | 600 nM | 
COCCN1C(=O)CC(c2ccc(Cl)cc2)C(C(=O)OCCc2ccccc2)=C1C (stereo not drawn) [Example 110, 2-phenylethyl 4-(4-chlorophenyl)-1-(2-methoxyethyl)-6-methyl-2-oxo-3,4-dihydropyridine-5-carboxylate] | 2300 nM | 50% | 1600 nM | 42%
COCCN1C(=O)CC(c2ccc(Cl)cc2)C(C(=O)OCC(=O)c2ccccc2)=C1C (stereo not drawn) [Example 112, Phenacyl 4-(4-chlorophenyl)-1-(2-methoxyethyl)-6-methyl-2-oxo-3,4-dihydropyridine-5-carboxylate] | 5200 nM | 20% | 3200 nM | 46%
COCCN1C(=O)CC(c2ccc(Cl)cc2)C(C(=O)OCc2ccc(OCCCN(C)C)cc2)=C1C (stereo not drawn) [Example 116, [4-[3-(dimethylamino)propoxy]phenyl]methyl 4-(4-chlorophenyl)-1-(2-methoxyethyl)-6-methyl-2-oxo-3,4-dihydropyridine-5-carboxylate] | 1400 nM | 76% | 1600 nM | 82%
COCCN1C(=O)CC(c2ccc(Cl)cc2)C(C(=O)OCc2ccc(OCCC[N+](C)(C)C)cc2)=C1C.[I-] (stereo not drawn) [Example 117, 3-[4-[[4-(4-chlorophenyl)-1-(2-methoxyethyl)-6-methyl-2-oxo-3,4-dihydropyridine-5-carbonyl]oxymethyl]phenoxy]propyl-trimethyl-ammonium; iodide] | 1600 nM | 74% | 4200 nM | 77%
COCCOc1ccc(COC(=O)C2=C(C)N(CCOC)C(=O)CC2c2ccc(Cl)cc2)cc1 (stereo not drawn) [Example 119, [4-(2-methoxyethoxy)phenyl]methyl 4-(4-chlorophenyl)-1-(2-methoxyethyl)-6-methyl-2-oxo-3,4-dihydropyridine-5-carboxylate] | 100 nM | 85% | 100 nM | 83%
CCCC1CC(=O)N(CCOC)C(C)=C1C(=O)OCc1ccccc1OC (stereo not drawn) [Example 121, (2-methoxyphenyl)methyl 1-(2-methoxyethyl)-6-methyl-2-oxo-4-propyl-3,4-dihydropyridine-5-carboxylate] | 1100 nM | 51% | 1200 nM | 49%
